Test results: PubChem BioAssay (NCI)
Values joined by “and” are separate entries in the source; they are usually repeats but may differ in a detail not shown here. Equal values may be shown once.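 These data come from cells grown in 96-well plates and exposed to compound for 48 hours at five concentrations. Abbreviation: GI50, concentration required for 50% inhibition of growth. TGI: total growth inhibition.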

Tests used:
Assay in all cases: NCI anticancer screen, dose series, 48 h
DLD-1 colon = test system: DLD-1 colon
HCT-15 colon = test system: HCT-15 colon
ACHN renal = test system: ACHN renal
HOP-62 NSCLC = test system: HOP-62 NSCLC
MOLT-4 leukemia = test system: MOLT-4 leukemia
SK-MEL-5 melanoma = test system: SK-MEL-5 melanoma
IGROV1 ovarian = test system: IGROV1 ovarian
UO-31 renal = test system: UO-31 renal
LXFL 529 NSCLC = test system: LXFL 529 NSCLC
MDA-MB-435 = test system: MDA-MB-435

Row | Compound | TGI (DLD-1 colon) | TGI (HCT-15 colon) | TGI (ACHN renal) | TGI (HOP-62 NSCLC) | TGI (MOLT-4 leukemia) | TGI (SK-MEL-5 melanoma) | TGI (IGROV1 ovarian) | TGI (UO-31 renal) | TGI (LXFL 529 NSCLC) | TGI (MDA-MB-435) | GI50 (DLD-1 colon) | GI50 (HCT-15 colon) | GI50 (ACHN renal) | GI50 (HOP-62 NSCLC) | GI50 (IGROV1 ovarian) | GI50 (MOLT-4 leukemia) | GI50 (UO-31 renal) | GI50 (LXFL 529 NSCLC) | GI50 (SK-MEL-5 melanoma) | GI50 (MDA-MB-435)
1 | COc1c(NC(C)=O)cc(C)cc1NC(C)=O | > 100 µM | > 100 µM | > 100 µM | > 100 µM | > 100 µM | > 100 µM | – | – | – | – | – | – | – | – | – | – | – | – | – | –
2 | COC(=O)C1=C(C(=O)OC)C23CC1C1C(C(=O)OC)=C(C(=O)OC)C12C1C=CC3C2C(=O)OC(=O)C21 (stereo unspecified) | > 100 µM | > 100 µM | > 100 µM | > 100 µM | > 100 µM | > 100 µM | > 100 µM | > 100 µM | > 100 µM | – | – | – | – | – | – | – | – | – | – | –
3 | NNC(=S)N/N=C(/C(=O)Nc1cc(Cl)ccc1Cl)C1C(=O)Nc2ccccc2S1=O (stereo unspecified) | > 100 µM | > 100 µM | > 100 µM | > 100 µM | > 100 µM | > 100 µM | > 100 µM | > 100 µM | > 100 µM | – | – | – | – | – | – | – | – | – | – | –
4 | COc1ccc(C(=O)C(C(=O)C(=O)Nc2ccc(Cl)c(Cl)c2)c2ccc(OC)cc2)cc1 (stereo unspecified) | > 100 µM | > 100 µM | > 100 µM | > 100 µM | > 100 µM | > 100 µM | > 100 µM | > 100 µM | > 100 µM | – | – | – | – | – | – | – | – | – | – | –
5 | CC(C)(C)CC(C)(C)c1cc2c(O)c(c1)Cc1cc(C(C)(C)CC(C)(C)C)cc(c1O)Cc1cc(C(C)(C)CC(C)(C)C)cc(c1O)Cc1cc(C(C)(C)CC(C)(C)C)cc(c1O)Cc1cc(C(C)(C)CC(C)(C)C)cc(c1O)Cc1cc(C(C)(C)CC(C)(C)C)cc(c1O)C2 | > 100 µM | > 100 µM | > 100 µM | > 100 µM | > 100 µM | > 100 µM | > 100 µM | > 100 µM | > 100 µM | – | – | – | – | – | – | – | – | – | – | –
6 | CCOC(=O)C1=C(O)CSC1=Nc1ccccc1 | > 100 µM | > 100 µM | > 100 µM | > 100 µM | > 100 µM | – | > 100 µM | > 100 µM | > 100 µM | – | – | – | – | – | – | – | – | – | – | –
7 | O=P(NC12CC3CC(CC(C3)C1)C2)(N1CC1)N1CC1 | > 100 µM | > 100 µM | > 100 µM | > 100 µM | > 43.2 µM | > 100 µM | > 100 µM | > 100 µM | > 100 µM | > 100 µM | – | – | – | – | – | – | – | – | – | –
8 | O=C([O][Hg][CH2]C1COC([CH2][Hg][O]C(=O)c2ccccc2)CO1)c1ccccc1 (stereo unspecified) | 7.25 µM | 5.67 µM and 3.15 µM | 20.7 µM and 3.08 µM | 37.9 µM and 56.4 µM | 6.5 µM and 6.83 µM | 28.6 µM and 10.7 µM | 17.2 µM | 31.5 µM | 2.86 µM | – | 2.59 µM | 2.83 µM and 1.63 µM | 8.92 µM and 1.67 µM | 19.2 µM and 20.7 µM | 8.71 µM | 2.18 µM and 1.41 µM | 17.7 µM | 1.53 µM | 15.1 µM and 2.85 µM | –
9 | CN[C@@H](C)[C@@H](N)c1ccccc1 | > 100 µM | > 100 µM | > 100 µM | – | > 100 µM | > 100 µM | > 100 µM | > 100 µM | > 100 µM | – | – | – | – | – | – | – | – | – | – | –
10 | CC(=O)c1cccc(NC(=O)C(=O)C(C2OC(=O)c3ccccc32)[N+](=O)[O-])c1 (stereo unspecified) | > 100 µM | > 100 µM | > 100 µM | > 100 µM | > 100 µM | > 100 µM | > 100 µM | > 100 µM | > 100 µM | – | – | – | – | – | – | – | – | – | – | –
11 | CCOC(=O)c1cc2c(nc1N)-c1ncccc1CC2 | > 100 µM | > 100 µM | > 100 µM | > 100 µM | > 100 µM | > 100 µM | > 100 µM | > 100 µM | > 100 µM | – | – | – | – | – | – | – | – | – | – | –
12 | COc1ccc(N=Nc2c(-c3ccccc3)nn(C(=O)CC(=O)Nc3cccc(Cl)c3)c2-c2ccccc2)cc1 | > 100 µM | > 100 µM | > 100 µM | > 100 µM | > 100 µM | > 100 µM | > 100 µM | > 100 µM | > 100 µM | – | – | – | – | – | – | – | – | – | – | –
13 | Cc1c(C(=O)C/C(=N/NC(=O)C[n+]2ccccc2)C(=O)Nc2ccccc2)[n+](=O)c2ccccc2n1O | > 100 µM | > 100 µM | > 100 µM | > 100 µM | > 100 µM | > 100 µM | > 100 µM | > 100 µM | > 100 µM | – | – | – | – | – | – | – | – | – | – | –
14 | CC(=O)C1=C(C)Cn2c(=O)c3ccccc3c(=O)n2C1 | > 100 µM | > 100 µM | > 100 µM | > 100 µM | > 100 µM | > 100 µM | > 100 µM | > 100 µM | > 100 µM | – | – | – | – | – | – | – | – | – | – | –
15 | CCCCCCCCOC(CO)CO | > 100 µM | > 100 µM | > 100 µM | > 100 µM | > 100 µM | > 100 µM | > 100 µM | > 100 µM | > 100 µM | – | – | – | – | – | – | – | – | – | – | –
16 | C[C@]12CCc3nonc3C1CC[C@@H]1C2CC[C@]2(C)NC(=O)CCC12 (stereo partly specified) | – | > 100 µM | > 100 µM | > 100 µM | > 100 µM | > 100 µM | > 100 µM | > 100 µM | > 100 µM | – | – | – | – | – | – | – | – | – | – | –
17 | O=C(c1cc2ccccc2o1)N(Cc1ccccc1)c1ccccc1 | 56.6 µM | 41 µM | > 100 µM | 71.4 µM | 39.9 µM | 31.2 µM | > 100 µM | 51.8 µM | > 100 µM | – | – | – | – | – | – | – | – | – | – | –
18 | O=c1cccccc1NCCCCCCNc1cccccc1=O | > 100 µM | > 100 µM | > 100 µM | > 100 µM | > 100 µM | > 100 µM | > 100 µM | > 100 µM | > 100 µM | – | – | – | – | – | – | – | – | – | – | –
19 | CN(N=O)C(=O)N[C@@H](C=O)[C@@H](O)[C@H](O)[C@H](O)CO | > 750 µM | 666 µM and > 750 µM | > 750 µM | > 750 µM | 574 µM and > 750 µM | 631 µM and > 750 µM | > 750 µM | > 750 µM | > 750 µM | > 750 µM | > 750 µM | > 750 µM | – | > 750 µM | > 750 µM | > 750 µM | > 750 µM | – | > 750 µM | –
20 | CC/C(=C(/CC)c1ccc([O-])cc1)c1ccc([O-])cc1.CC/C(=C(\CC)c1ccc([O-])cc1)c1ccc([O-])cc1.O=C([CH-]C(=O)c1ccccc1)c1ccccc1.O=C([CH-]C(=O)c1ccccc1)c1ccccc1.O=C([CH-]C(=O)c1ccccc1)c1ccccc1.O=C([CH-]C(=O)c1ccccc1)c1ccccc1.[Ti+4].[Ti+4] | 53.1 µM | > 100 µM | > 100 µM | 51.3 µM | > 100 µM | – | > 100 µM | 72.2 µM | – | – | 19.8 µM | 39.4 µM | 35.2 µM | 22.5 µM | 41.9 µM | 27.7 µM | 35 µM | – | – | –
21 | O=C1c2ccccc2C(=O)c2c(NCCNCCO)ccc(O)c21 | 15.6 µM | 13.7 µM | 11.2 µM | 14.5 µM | 7.49 µM | 12.7 µM | 13.4 µM | 5.58 µM | 15.5 µM | – | – | – | – | – | – | – | – | – | – | –
22 | O=C1OCCC1C(O)C1c2ccccc2-c2ccccc21 (stereo unspecified) | > 100 µM | – | > 100 µM | > 100 µM | > 100 µM | – | > 100 µM | > 100 µM | > 100 µM | – | – | – | – | – | – | – | – | – | – | –
23 | CC(=O)O[C@]1(C)OC(=O)[C@@H](C)N1[N+](=O)[O-] | > 100 µM | > 100 µM | > 100 µM | > 100 µM | > 100 µM | > 100 µM | > 100 µM | > 100 µM | > 100 µM | – | – | – | – | – | – | – | – | – | – | –
24 | CC1(C)CCc2cc3c(cc2O1)OCC1c2cc4c(cc2OC31)OCO4 (stereo unspecified) | > 100 µM | > 100 µM | > 100 µM | > 100 µM | > 100 µM | > 100 µM | > 100 µM | > 100 µM | > 100 µM | – | – | – | – | – | – | – | – | – | – | –
25 | Cc1ccc(C)c(NC(=O)NCc2ccc(Cl)cc2)c1 | – | > 100 µM | > 90.7 µM | 37 µM | > 36.2 µM | > 100 µM | > 100 µM | > 100 µM | – | > 100 µM | – | – | – | – | – | – | – | – | – | –
26 | O=c1cc(N2CCNCC2)oc2c(-c3ccccc3)cccc12 | – | > 100 µM | > 100 µM | > 100 µM | 56.8 µM | 32.5 µM | > 100 µM | > 100 µM | – | 98.8 µM | – | 34.7 µM | 34.1 µM | 65.4 µM | 31.8 µM | 19.4 µM | 24 µM | – | 14.8 µM | 20.9 µM
27 | CCOC(=O)/C=C/c1cc2cc(-c3csc4ccccc34)ccc2[nH]1 | – | 15.8 µM | 20.1 µM | 24.4 µM | 10.4 µM | 16.6 µM | 17.4 µM | 19.1 µM | – | 4.73 µM | – | 3.59 µM | 7.15 µM | 5.71 µM | 4.62 µM | 2.44 µM | 4.94 µM | – | 4.52 µM | 1.91 µM
28 | CC(=O)c1cc2c(cc1Nc1c3ccccc3nc3occ(Cl)c13)OCO2 | – | – | > 100 µM | > 65.1 µM | > 100 µM | 0.376 µM | > 100 µM | > 100 µM | – | 0.161 µM | – | 0.328 µM | 0.46 µM | 0.291 µM | 0.185 µM | 0.198 µM | 1.09 µM | – | 0.103 µM | 0.0444 µM
